Laboratory results: BigSolDB 2.1

O=C[C@H](O)[C@H](O)[C@H](O)CO
solubility (mole fraction)
Settings	283.15 K	288.15 K	293.15 K	298.15 K	303.15 K	313.15 K	323.15 K
in acetone	0.00234	–	0.00302	–	0.00509	0.0077	0.0118
in acetonitrile	0.00109	–	0.00144	–	0.0022	0.00357	0.00626
in dichloromethane	0.000102	0.000257	0.000367	0.000402	0.000529	–	–
in ethanol	0.00798	–	0.0121	–	0.0213	0.0394	0.0675
in ethyl acetate	0.000876	–	0.00107	–	0.00162	0.00257	0.0036
in isobutanol	0.00334	–	0.00421	–	0.0063	0.0102	0.0156
in isopropanol	0.00457	–	0.00703	–	0.0117	0.021	0.0426
in methanol	0.0313	0.0457	0.0587	0.0771	0.108	–	–
in n-butanol	0.00388	–	0.00485	–	0.00814	0.0124	0.0201
in n-hexane	3.77e-05	–	7.32e-05	–	0.000101	0.000174	0.000205
in n-propanol	0.00515	–	0.00691	–	0.0112	0.0179	0.0305
in sec-butanol	0.00484	–	0.00567	–	0.00894	0.0152	0.0242
